According to BindingDB's records for doi:10.1021/cb400407c (Duke University Medical Center, 2013):
Values joined by “and” are separate entries in the source; they are usually repeats but may differ in a detail not shown here. Equal values may be shown once.

Key:
Assay in all cases: Kinome Profiling
[1] = molecular target: Death-associated protein kinase 1 (Homo sapiens, UniProt P53355)
Procedure: (§1) HS38 was evaluated using a P-33 ATP filter-binding assay by the International Centre for Kinase Profiling (University of Dundee) against 124 purified protein kinases using previously described methods.

[2] = molecular target: Serine/threonine-protein kinase pim-1 (Homo sapiens, UniProt P11309)
Procedure: as §1

[3] = molecular target: Serine/threonine-protein kinase pim-2 (Homo sapiens, UniProt Q9P1W9)
Procedure: as §1

[4] = molecular target: Serine/threonine-protein kinase pim-3 (Homo sapiens, UniProt Q86V86)
Procedure: as §1

[5] = molecular target: Rho-associated protein kinase 2 (Homo sapiens, UniProt O75116)
Procedure: as §1

Death-associated protein kinase 1, sequence (P53355 whole entry): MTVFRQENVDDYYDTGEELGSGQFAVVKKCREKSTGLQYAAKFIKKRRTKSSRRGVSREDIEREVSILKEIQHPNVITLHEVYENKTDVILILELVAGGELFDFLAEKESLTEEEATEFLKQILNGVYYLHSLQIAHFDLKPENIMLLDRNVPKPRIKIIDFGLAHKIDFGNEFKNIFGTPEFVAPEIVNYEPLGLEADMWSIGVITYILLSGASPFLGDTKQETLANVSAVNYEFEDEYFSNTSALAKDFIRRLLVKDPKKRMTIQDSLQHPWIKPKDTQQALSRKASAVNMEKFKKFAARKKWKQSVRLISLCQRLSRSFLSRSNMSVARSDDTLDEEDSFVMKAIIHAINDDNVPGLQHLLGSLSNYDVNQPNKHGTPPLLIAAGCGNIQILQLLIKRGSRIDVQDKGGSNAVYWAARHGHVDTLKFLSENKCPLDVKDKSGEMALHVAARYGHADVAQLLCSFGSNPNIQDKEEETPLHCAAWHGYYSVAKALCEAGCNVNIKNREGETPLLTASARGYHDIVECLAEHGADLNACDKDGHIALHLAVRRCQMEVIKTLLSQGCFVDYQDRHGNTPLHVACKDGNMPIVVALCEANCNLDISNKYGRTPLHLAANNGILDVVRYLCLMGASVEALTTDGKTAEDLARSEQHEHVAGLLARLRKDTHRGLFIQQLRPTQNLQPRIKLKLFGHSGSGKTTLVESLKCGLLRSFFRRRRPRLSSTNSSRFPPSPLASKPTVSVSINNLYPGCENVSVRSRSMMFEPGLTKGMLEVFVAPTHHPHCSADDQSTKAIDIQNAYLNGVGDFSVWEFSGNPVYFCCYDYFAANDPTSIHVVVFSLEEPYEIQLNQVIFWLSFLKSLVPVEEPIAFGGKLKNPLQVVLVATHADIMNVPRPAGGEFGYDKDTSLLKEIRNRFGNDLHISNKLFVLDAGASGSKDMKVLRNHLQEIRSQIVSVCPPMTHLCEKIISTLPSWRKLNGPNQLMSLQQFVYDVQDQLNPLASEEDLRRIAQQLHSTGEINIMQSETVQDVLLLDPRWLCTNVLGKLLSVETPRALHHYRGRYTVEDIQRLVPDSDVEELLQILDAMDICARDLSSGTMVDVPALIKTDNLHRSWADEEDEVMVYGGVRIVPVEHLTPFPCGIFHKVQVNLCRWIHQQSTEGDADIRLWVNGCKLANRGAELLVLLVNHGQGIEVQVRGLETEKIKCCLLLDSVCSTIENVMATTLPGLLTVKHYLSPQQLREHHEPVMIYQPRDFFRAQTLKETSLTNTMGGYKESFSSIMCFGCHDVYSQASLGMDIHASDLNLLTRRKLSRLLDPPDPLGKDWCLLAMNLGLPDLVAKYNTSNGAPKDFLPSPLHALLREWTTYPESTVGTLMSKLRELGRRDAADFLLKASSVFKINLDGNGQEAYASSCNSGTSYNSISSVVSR
Serine/threonine-protein kinase pim-1, sequence (P11309 whole entry): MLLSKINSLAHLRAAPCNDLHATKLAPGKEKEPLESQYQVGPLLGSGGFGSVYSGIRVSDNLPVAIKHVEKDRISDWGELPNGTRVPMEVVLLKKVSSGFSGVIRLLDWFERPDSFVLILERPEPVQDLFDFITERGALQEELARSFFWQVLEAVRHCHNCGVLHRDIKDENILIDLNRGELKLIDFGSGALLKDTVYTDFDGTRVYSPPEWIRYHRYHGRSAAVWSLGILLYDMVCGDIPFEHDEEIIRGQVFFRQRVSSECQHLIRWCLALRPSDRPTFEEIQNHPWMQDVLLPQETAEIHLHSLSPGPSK
Serine/threonine-protein kinase pim-2, sequence (Q9P1W9 whole entry): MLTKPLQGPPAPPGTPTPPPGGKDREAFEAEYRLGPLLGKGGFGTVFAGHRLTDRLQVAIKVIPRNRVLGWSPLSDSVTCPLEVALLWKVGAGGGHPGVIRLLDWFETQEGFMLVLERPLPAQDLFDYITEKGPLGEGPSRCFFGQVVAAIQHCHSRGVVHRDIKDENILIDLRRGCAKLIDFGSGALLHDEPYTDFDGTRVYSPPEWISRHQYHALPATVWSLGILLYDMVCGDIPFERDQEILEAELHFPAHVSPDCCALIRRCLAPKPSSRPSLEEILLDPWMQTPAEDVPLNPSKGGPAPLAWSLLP
Rho-associated protein kinase 2, sequence (O75116 whole entry): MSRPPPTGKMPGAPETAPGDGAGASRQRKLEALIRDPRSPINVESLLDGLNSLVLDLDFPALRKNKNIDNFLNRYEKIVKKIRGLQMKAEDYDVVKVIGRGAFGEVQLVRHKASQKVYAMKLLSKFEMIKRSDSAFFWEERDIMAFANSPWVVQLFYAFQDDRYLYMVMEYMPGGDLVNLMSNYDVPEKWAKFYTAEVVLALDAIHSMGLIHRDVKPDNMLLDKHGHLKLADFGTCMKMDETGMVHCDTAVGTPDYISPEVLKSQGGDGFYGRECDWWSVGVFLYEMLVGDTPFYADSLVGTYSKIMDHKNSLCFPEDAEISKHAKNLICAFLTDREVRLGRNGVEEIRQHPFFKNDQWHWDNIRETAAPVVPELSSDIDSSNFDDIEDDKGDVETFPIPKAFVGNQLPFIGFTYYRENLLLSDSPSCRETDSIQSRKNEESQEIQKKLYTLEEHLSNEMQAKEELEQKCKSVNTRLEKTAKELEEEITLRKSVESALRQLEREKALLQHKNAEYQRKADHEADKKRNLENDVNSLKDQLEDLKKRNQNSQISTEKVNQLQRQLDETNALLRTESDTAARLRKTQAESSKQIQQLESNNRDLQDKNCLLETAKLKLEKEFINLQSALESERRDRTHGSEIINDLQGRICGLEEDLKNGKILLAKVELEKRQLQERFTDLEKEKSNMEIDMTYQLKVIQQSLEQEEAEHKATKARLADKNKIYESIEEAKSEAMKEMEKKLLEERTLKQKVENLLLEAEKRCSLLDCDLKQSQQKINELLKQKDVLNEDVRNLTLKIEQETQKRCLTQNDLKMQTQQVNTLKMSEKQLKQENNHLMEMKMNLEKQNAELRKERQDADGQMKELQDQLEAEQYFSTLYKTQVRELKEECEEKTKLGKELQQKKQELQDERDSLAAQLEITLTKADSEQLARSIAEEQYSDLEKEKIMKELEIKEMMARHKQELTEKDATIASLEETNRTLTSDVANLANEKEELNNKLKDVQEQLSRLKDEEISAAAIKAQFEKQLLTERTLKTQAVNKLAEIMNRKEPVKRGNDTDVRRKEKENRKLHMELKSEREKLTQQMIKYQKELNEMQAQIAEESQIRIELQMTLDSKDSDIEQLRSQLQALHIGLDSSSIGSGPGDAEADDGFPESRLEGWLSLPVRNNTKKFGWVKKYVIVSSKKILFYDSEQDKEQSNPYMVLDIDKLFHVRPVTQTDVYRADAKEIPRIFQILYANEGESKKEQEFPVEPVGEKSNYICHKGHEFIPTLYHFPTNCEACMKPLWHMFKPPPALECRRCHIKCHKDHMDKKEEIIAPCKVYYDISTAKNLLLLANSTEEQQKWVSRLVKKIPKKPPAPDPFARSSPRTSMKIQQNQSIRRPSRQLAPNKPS

Kd [2] [nM]	Kd [3] [nM]	Kd [4] [nM]	IC50 [5] [nM]	SMILES	Kd [1]
1800	3200	1600		O=c1[nH]c(SCCO)nc2c1cnn2-c1cccc(Cl)c1 [HS43]	1500 nM and 320 nM
1800	6500	810	> 200000	CC(Sc1nc2c(cnn2-c2cccc(Cl)c2)c(=O)[nH]1)C(N)=O (centres undefined) [HS38]	300 nM and 79 nM and 280 nM
